According to patent publication US20120022045A1, “BRIDGED COMPOUNDS AS HIV INTEGRASE INHIBITORS” (priority 2009, published 2012):
Read-outs that look alike come from different tables or passages of the source.

Columns and labels:
Format in all cases: cell-based
HIV-1 = assay: Inhibition of acute HIV-1 infection of T-lymphoid cells (spread assay); conditions: 10% FBS, read-out: IC95 (nM) in the presence of 10% FBS
Procedure: Assays for the inhibition of acute HIV-1 infection of T-lymphoid cells were conducted in accordance with Vacca, J. P. et al., Proc. Natl. Acad. Sci. USA 1994, 91: 4096.

[1] = system: HIV-1 integrase mutant virus G140S/Q148H; assay: Single cycle infectivity assay in HeLa P4-2 cells, integrase mutant G140S/Q148H virus; conditions: fold shift in IC50 versus wild type IIIB
Procedure: (§1) An assay for measuring the inhibition of acute HIV-1 infection with HeLa P4-2 cells in a single cycle infectivity assay was conducted using methods described in Joyce et al., J. Biol. Chem. 2002, 277: 45811, Hazuda et al., Science 2000, 287: 646, and Kimpton et al, J. Virol. 1992, 66: 2232. Proviral plasmids encoding viruses containing specific mutations in the integrase gene (N155H, Q148R, Y143R, E92Q, or G140S/Q148H) were generated by site-directed mutagenesis, and viruses were produced by transfecting 293T cells with the appropriate proviral plasmids.

[2] = system: HIV-1 integrase mutant virus Q148R; assay: Single cycle infectivity assay in HeLa P4-2 cells, integrase mutant Q148R virus; conditions: fold shift in IC50 versus wild type IIIB
Procedure: as §1

[3] = system: HIV-1 integrase mutant virus N155H; assay: Single cycle infectivity assay in HeLa P4-2 cells, integrase mutant N155H virus; conditions: fold shift in IC50 versus wild type IIIB
Procedure: as §1

[4] = system: HIV-1 integrase mutant virus Y143R; assay: Single cycle infectivity assay in HeLa P4-2 cells, integrase mutant Y143R virus; conditions: fold shift in IC50 versus wild type IIIB
Procedure: as §1

HIV-1 wild type IIIB = assay: Single cycle infectivity assay in HeLa P4-2 cells, wild type virus
Procedure: as §1

[5] = Human immunodeficiency virus 1, T-lymphoid
[6] = Human immunodeficiency virus 1, IIIB, HeLaP4-2, wild type IIIB

SMILES	IC95 (HIV-1) [nM]	G140S/Q148H (shift) [1] [fold]	Q148R (shift) [2] [fold]	N155H (shift) [3] [fold]	Y143R (shift) [4] [fold]	IC50 (HIV-1 wild type IIIB; wild type IIIB) [nM]	IC95 (HIV-1; [5]) [nM]	IC50 (HIV-1 wild type IIIB; [6]) [nM]
CC1C2CCC(NC(=O)C(=O)N(C)C)(CO2)c2nc(C(=O)NCc3ccc(F)cc3)c(O)c(=O)n21 (single isomer, unassigned) [Example 29D, N′-(4-{[(4-Fluorobenzyl)amino]carbonyl}-5-hydroxy-8-methyl-6-oxo-10-oxa-3,7-diazatricyclo[7.2.2.0^2,7]trideca-2,4-dien-1-yl)-N-dimethylethanediamide]	21.6	2	1	2	1	21		
CCCN(C(=O)C(=O)N(C)C)C12CCC(Cn3c1nc(C(=O)NCc1ccc(F)cc1)c(O)c3=O)OC2 (stereo not drawn) [Example 19, N-(4-{[(4-fluorolbenzyl)amino]carbonyl}-5-hydroxy-6-oxo-10-oxa-3,7-diazatricyclo[7.2.2.0^2,7]trideca-2,4-dien-1-yl)-N′,N′-dimethyl-N-propylethanediamide]		>209	59	45	7		15.9	8
CC1C2CCC(N(C)C(=O)C(=O)N(C)C)(CO2)c2nc(C(=O)NCc3ccc(F)cc3)c(O)c(=O)n21 (single isomer, unassigned) [Example 27B, N-(4-{[(4-fluorobenzyl)amino]carbonyl}-5-hydroxy-8-methyl-6-oxo-10-oxa-3,7-diazatricyclo[7.2.2.0^2,7]trideca-2,4-dien-1-yl)-N,N′,N′-trimethylethanediamide]	27.3	>70	9	20	7	24		
CCC1C2CCC(NC(=O)C(=O)N(C)C)(CO2)c2nc(C(=O)NCc3ccc(F)cc3)c(O)c(=O)n21 (single isomer, unassigned) [Example 26A, N′-(8-ethyl-4-{[(4-fluorobenzyl)amino]carbonyl}-5-hydroxy-6-oxo-10-oxa-3,7-diazatricyclo[7.2.2.0^2,7]trideca-2,4-dien-1-yl)-N-dimethylethanediamide]	16.0	>70	9	9	2	24		
CCC12CCC(NC(=O)C(=O)N(C)C)(CO1)c1nc(C(=O)NCc3ccc(F)cc3)c(O)c(=O)n1C2 (single isomer, unassigned) [Example 22B, N′-(9-ethyl-4-{[(4-fluorolbenzyl)amino]carbonyl}-5-hydroxy-6-oxo-10-oxa-3,7-diazatricyclo[7.2.2.0^2,7]trideca-2,4-dien-1-yl)-N,N-dimethylethanediamide]	12.6	10	3	3	1	19		
CCN(C(=O)C(=O)N(C)C)C12CCC(Cn3c1nc(C(=O)NCc1ccc(F)c(C)c1)c(O)c3=O)OC2 (single isomer, unassigned) [Example 18B, N-ethyl-N-(4-{[(4-fluoro-3-methylbenzyl)amino]carbonyl}-5-hydroxy-6-oxo-10-oxa-3,7-diazatricyclo[7.2.2.0^2,7]trideca-2,4-dien-1-yl)-N,N-dimethylethanediamide]		19	2	2	2		10.7	10
CCC1C2CCC(N(C)C(=O)C(=O)N(C)C)(CO2)c2nc(C(=O)NCc3ccc(F)cc3)c(O)c(=O)n21 (single isomer, unassigned) [Example 25B, N-(8-ethyl-4-{[(4-fluorobenzyl)amino]carbonyl}-5-hydroxy-6-oxo-10-oxa-3,7-diazatricyclo[7.2.2.0^2,7]trideca-2,4-dien-1-yl)-N,N′,N′-trimethylethanediamide]	7.9	1	1	1	1	8		
CCC1C2CCC(NC(=O)C(=O)N(C)C)(CO2)c2nc(C(=O)NCc3ccc(F)cc3)c(O)c(=O)n21 (single isomer, unassigned) [Example 26B, N′-(8-ethyl-4-{[(4-fluorobenzyl)amino]carbonyl}-5-hydroxy-6-oxo-10-oxa-3,7-diazatricyclo[7.2.2.0^2,7]trideca-2,4-dien-1-yl)-N-dimethylethanediamide]	22.6	1	1	1	1	36		
CCN(C(=O)C(=O)N(C)C)C12CCC(OC)(CC1)Cn1c2nc(C(=O)NCc2ccc(F)cc2)c(O)c1=O [Example 16, N-Ethyl-N-(4-{[(4-fluorobenzyl)amino]carbonyl}-5-hydroxy-9-methoxy-6-oxo-3,7-diazatricyclo[7.2.2.0^2,7]trideca-2,4-dien-1-yl)-N,N′-dimethylethanediamide]		15	1	3	1		11.3	15
CN(C(=O)C(=O)N1CCOCC1)C12CCC(Cn3c1nc(C(=O)NCc1ccc(F)cc1)c(O)c3=O)C2 (stereo not drawn) [Example 9, N-(4-Fluorobenzyl)-3-hydroxy-10-{methyl[morpholin-4-yl(oxo)acetyl]amino}-4-oxo-4,6,7,8,9,10-hexahydro-7,10-methanopyrimido[1,2-a]azepine-2-carboxamide]		40	11	5	2		15	43
CCC1C2CCC(N(C)C(=O)C(=O)N(C)C)(CO2)c2nc(C(=O)NCc3ccc(F)cc3)c(O)c(=O)n21 (single isomer, unassigned) [Example 25A, N-(8-ethyl-4-{[(4-fluorobenzyl)amino]carbonyl}-5-hydroxy-6-oxo-10-oxa-3,7-diazatricyclo[7.2.2.0^2,7]trideca-2,4-dien-1-yl)-N,N′,N′-trimethylethanediamide]		1	1	1	7	14	6.3	
CCC12CCC(NC(=O)C(=O)N(C)C)(CO1)c1nc(C(=O)NCc3ccc(F)cc3)c(O)c(=O)n1C2 (single isomer, unassigned) [Example 22A, N′-(9-ethyl-4-{[(4-fluorolbenzyl)amino]carbonyl}-5-hydroxy-6-oxo-10-oxa-3,7-diazatricyclo[7.2.2.0^2,7]trideca-2,4-dien-1-yl)-N,N-dimethylethanediamide]		198	24	23	5	7	12.7	
CN(C)C(=O)C(=O)N(C)C12CCC(CC1)n1c2nc(C(=O)NCc2ccc(F)cc2)c(O)c1=O [Example 30]		32	9	7	3		22.4	17
CN(C)C(=O)C(=O)N(C)C12CCC(C)(Cn3c1nc(C(=O)NCc1ccc(F)cc1)c(O)c3=O)OC2 (single isomer, unassigned) [Example 21B]	21.0	>93	11	13	3	18		
CC1C2CCC(N(C)C(=O)C(=O)N(C)C)(CO2)c2nc(C(=O)NCc3ccc(F)cc3)c(O)c(=O)n21 (single isomer, unassigned) [Example 27D, N-(4-{[(4-fluorobenzyl)amino]carbonyl}-5-hydroxy-8-methyl-6-oxo-10-oxa-3,7-diazatricyclo[7.2.2.0^2,7]trideca-2,4-dien-1-yl)-N,N′,N′-trimethylethanediamide]	6.9	2	1	1	1	11		
CC1C2CCC(NC(=O)C(=O)N(C)C)(CO2)c2nc(C(=O)NCc3ccc(F)cc3)c(O)c(=O)n21 (single isomer, unassigned) [Example 29C, N′-(4-{[(4-Fluorobenzyl)amino]carbonyl}-5-hydroxy-8-methyl-6-oxo-10-oxa-3,7-diazatricyclo[7.2.2.0^2,7]trideca-2,4-dien-1-yl)-N-dimethylethanediamide]	47.8	81	8	17	3	20		
